Molecules are shown by their SMILES. Read-outs that look alike come from different tables or passages of the source.

Holding throughout (assay): intrinsic tryptophan fluorescence quenching titration (static quenching; Ka, n = […])
Holding throughout (format): binding
What all share (details): read-out: Ka (M^-1) × 10^4 (converted)

For experiment [1], the target named is T1, human holo-transferrin (HTF) (Homo sapiens, UniProt P02787).
T1 construct: gene TF

For experiment [2], the target named is T1, human holo-transferrin (HTF). The source holds these as a separate data set.
Experiment [3] has the same target. The source holds these as a separate data set.

T1 sequence (P02787 20-698): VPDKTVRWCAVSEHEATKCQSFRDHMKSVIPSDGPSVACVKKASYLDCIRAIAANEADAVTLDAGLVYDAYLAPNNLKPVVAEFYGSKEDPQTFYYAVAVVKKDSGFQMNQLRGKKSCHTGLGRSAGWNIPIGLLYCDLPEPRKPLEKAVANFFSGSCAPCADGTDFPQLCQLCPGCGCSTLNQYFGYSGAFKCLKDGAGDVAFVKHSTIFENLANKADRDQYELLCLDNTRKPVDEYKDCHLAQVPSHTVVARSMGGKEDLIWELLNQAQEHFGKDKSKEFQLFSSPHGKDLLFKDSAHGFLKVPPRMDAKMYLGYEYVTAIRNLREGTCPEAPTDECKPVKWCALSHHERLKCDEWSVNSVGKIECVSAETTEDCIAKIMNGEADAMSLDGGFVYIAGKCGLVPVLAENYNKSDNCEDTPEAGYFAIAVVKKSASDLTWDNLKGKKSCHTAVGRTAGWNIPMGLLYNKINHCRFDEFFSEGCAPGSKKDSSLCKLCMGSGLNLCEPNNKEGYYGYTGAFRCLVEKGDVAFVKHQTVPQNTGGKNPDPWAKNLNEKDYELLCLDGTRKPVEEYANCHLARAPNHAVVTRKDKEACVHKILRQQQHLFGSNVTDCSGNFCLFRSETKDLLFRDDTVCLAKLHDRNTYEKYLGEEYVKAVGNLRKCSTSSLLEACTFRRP

As for `CO[C@H]1[C@H](O)[C@@H](O)[C@H](Oc2cc(C3CC(=O)c4cc(C)ccc4O3)ccc2O)O[C@@H]1CO` (stereo partly drawn) [MFA, 4′-hydroxy-6-methylflavanone 3′-O-β-D-(4′’-O-methyl)-glucopyranoside], the Kd in experiment [1] was 89.3 µM.
As for `CO[C@H]1[C@H](O)[C@@H](O)[C@H](Oc2cc(C3CC(=O)c4cc(CO)ccc4O3)ccc2O)O[C@@H]1CO` (stereo partly drawn) [MFB, 4′-hydroxy-6-hydroxymethylflavanone 3′-O-β-D-(4′’-O-methyl)-glucopyranoside], the Kd in experiment [2] is 68 µM.
In the case of `CO[C@H]1[C@H](O)[C@@H](O)[C@H](OCc2ccc3c(c2)C(=O)CC(c2ccc(O)cc2)O3)O[C@@H]1CO` (stereo partly drawn) [MFC, 4′-hydroxyflavanone 6-methylene-O-β-D-(4′’-O-methyl)-glucopyranoside], in experiment [3], the Kd is 35.8 µM.

The values are drawn from paper PMC9609356, “Novel O-Methylglucoside Derivatives of Flavanone in Interaction with Model Membrane and Transferrin” (Membranes, 2022).
